Experimental data from US6162799A, “Pesticidal compounds” (BTG International Limited, priority 1995, dated 2000).
In brackets after ≈: the same amount, converted by molar mass. Read-outs that look alike come from different tables or passages of the source.

How the values were obtained:
Type in all cases: in vivo
Bemisia tabaci = assay: Film/vial test on whitefly (BT), susceptible strain SUD-S; settings: 48 h; for mortality at 100 ppm: read-out: BT (SUD-S) kill at 100 ppm
Description: (§1) Pesticidal activity was assessed against houseflies, mustard beetles, mites and whitefly using the following methods.
Whitefly (BT) (Bemisia tabaci)
Acetone solutions (0.100 ml) of the test compounds were placed in 10 ml glass vials and evaporated with rotation to deposit a film of the compound. Thirty adult whiteflies were placed inside the vial, then after 60 minutes, the treated insects were transferred onto untreated cotton leaf discs which were kept moist on a bed of agar gel. The temperature was maintained at 25° C. and mortality assessed after 48 hours. Three replicates were used at each of 5 to 7 dose levels per compound. LC50 values were calculated by using a computer software package ("Polo-PC" available from LeOra Software, Berkeley, Calif.). (See M. R. Cahill and B. Hackett in Proceedings Brighton Crop Protection Conference, 1992). The test was carried out using a susceptible strain of whitefly (SUD-S) which was collected in Sudan in 1978 from cotton.
(§2) The values given are LD50 (μg/insect) or LC50 (ppm solution of test compound) unless otherwise specified.

Musca domestica = assay: Topical test on houseflies (MD); settings: for MD (LD50): houseflies, topical on thorax, kill assessed 24 and 48 h
Description: as §1
Houseflies (MD) (Musca domestica)
Female flies were treated on the thorax with a one microliter drop of test compound dissolved in acetone. Two replicates of 15 flies were used at each dose rate and 6 dose rates were used per compound under test. After treatment, the flies were maintained at a temperature of 20°±1° C. and kill was assessed 24 and 48 hours after treatment. LD50 values were calculated in micrograms of test compound per fly (see Sawicki et al., Bulletin of the World Health Organisation, 35, 893 (1966) and Sawicki et al., Entomologia and Exp. Appli 10, 253, (1967).
as §2

Tetranychus urticae = assay: Immersion test on mites (TU), susceptible strain GSS; settings: 72 h
Description: as §1
Mites (TU) (Tetranychus urticae)
25 adult female mites were immersed in 35 μl of a solution of the test compound in a 1:4 acetone-water mixture for 30 seconds. The treated insects were maintained at 21°±2° C. and kill was assessed 72 hours after treatment. […] Three replicates of 25 mites each were used at each dose rate and 5 or 6 dose rates were used per compound under test. LC50 values were calculated in ppm of the solution of the test compound per insect. The test was carried out using a susceptible strain of mites (GSS) supplied by Schering, AG, Berlin.
as §2

Myzus persicae [1] = assay: Aphicidal activity, topical application; settings: 72 h
Description: (§3) Activity against resistant (R) and susceptible (S) strains of aphid (Myzus persicae) and Aphis gossypiae was assessed using the following two methods.
Batches of 10-15 apterous adults were removed from stock cultures and placed on leaf discs (35 mm in diameter) cut from chinese cabbage and held on an agar bed (25 mm deep) in disposable plastic containers (30 mm high). Using a Burkhard micro-applicator aphids were dosed individually with a 0.25 μm droplet of chemical diluted to the required concentration in acetone. control insects were dosed with acetone only. Mortality and other effects were scored at 24 hour intervals up to and including 72 hour post-treatment, the end-point to which the results relate.
(§4) The test was carried out using a susceptible strain of aphids (US1L) collected in the field in East Anglia, UK and an extremely resistant strain of aphids (794Jz) (R^3 esterase, sensitive ACHE) collected from glasshouses in the UK.
(§5) The values given are % mortality corrected for control data. The control comprised the test solution without active ingredient.

Myzus persicae [2] = assay: Aphicidal activity, aphid-dip
Description: as §3
(§6) Entrapment rings of fluon were painted halfway up the inside of 4 cm lengths of glass tubing (1.5 cm diameter), and squares of insect-proof gauze were attached to one end of each tube by elastic bands. Fifteen apterous adults were then gently transferred into the tubes using a sable-hair brush, and the tube sealed with a second gauze square.
(§7) Tubes containing aphids were dipped into insecticide solutions for 10 seconds, dried on blotting paper, and then inverted and tapped to cause treated aphids to fall to the unimmersed end of each tube. Handling mortality (usually zero or very slight) was scored after 1 hour, when aphids were transferred onto chinese cabbage leaf-discs (35 mm diameter) on an agar bed (25 mm in depth) in disposible plastic containers (30 mm high) and confined by applying a ring of fluon to the exposed lip of the container. Containers were stored upright, without lids, in a constant environment facility maintained at 25° C. under continuous room lighting. Mortality was assessed at 24, 48 and 72 hours. Two replicates of 15 aphids each were used at each dose rate and 5 or 6 dose rates were used per compound under test.
as §4, §5

Aphis gossypiae = assay: Aphicidal activity, aphid-dip; settings: strain 81-171B, read-out: Aphid-dip result, % kill A.G. 81-171B
Description: as §3, §6, §7, §5

Phaedon cochleariae Fab = assay: Topical test on mustard beetles (PC); settings: for PC LD50 (comparative examples): Table 7; for PC (LD50): mustard beetles, topical, 48 h
Description: as §1
Mustard beetles (PC) (Phaedon cochleariae Fab)
A one microliter drop of an acetone solution of the test compound was applied ventrally to adult mustard beetles using a micro drop applicator. The treated insects were maintained for 48 hours after which time kill was assessed. Two replicates each of 20 to 25 mustard beetles were used at each dose level and 5 dose levels were treated comparably. LD50 values were calculated as for houseflies.
as §2

[3] = read-out: BT LC50 (comparative examples)
[4] = susceptible strain USIL, read-out: Topical aphid results, % kill M.P. USIL
[5] = susceptible strain USIL, read-out: Aphid-dip result, % kill M.P. USIL
[6] = resistant strain 794JZ, read-out: Topical aphid results, % kill M.P. 794JZ
[7] = resistant strain 794JZ, read-out: Aphid-dip result, % kill M.P. 794JZ
[8] = read-out: TU LC50 (comparative examples)

SMILES | MD (LD50) (Musca domestica) [μg/insect] | LC50 (Tetranychus urticae; read-out: TU (GSS) (LC50)) [µg/mL] | mortality at 100 ppm (Myzus persicae [1]; [4]) [%] | mortality at 100 ppm (Myzus persicae [2]; [5]) [%] | LC50 (Bemisia tabaci; read-out: BT (SUD-S) (LC50)) [µg/mL] | also measured
CCCC1=C(O)C(=O)c2ccccc2C1=O [--(CH2)2 CH3, reference compound] |  |  |  |  |  | LC50 (Bemisia tabaci; [3]): 80 µg/mL (≈ 370 µM)
C[Si](C)(C)CCCCCCC1=C(O)C(=O)c2ccccc2C1=O [Example 9, 2-Hydroxy-3(6'-trimethylsilylhexyl)-1,4-naphthoquinone] | 1.8 | 4.5 (≈ 13.6 µM) | 100 | 100 |  | mortality at 100 ppm (Aphis gossypiae): 71%
CCCCCCCCCCC1=C(O)C(=O)c2ccccc2C1=O [--(CH2)9 CH3, reference compound] |  |  |  |  |  | PC LD50 (comparative examples) (Phaedon cochleariae Fab): 1.9 μg/insect
CCC(=O)OC1=C(CCCCCCCCC[Si](C)(C)C)C(=O)c2ccccc2C1=O [Example 22, 2-propanoyloxy-3-(9-trimethylsilylnonyl)-1,4-naphthoquinone] |  |  | 37 |  |  | 
C=COC(=O)OC1=C(CCCCCCCCC[Si](C)(C)C)C(=O)c2ccccc2C1=O [Example 23, 2-vinylcarbonato-3-(9-trimethylsilylnonyl)-1,4-naphthoquinone] |  |  | 63 |  |  | mortality at 100 ppm (Bemisia tabaci): 32%
CCCCCCCCC1=C(O)C(=O)c2ccccc2C1=O [--(CH2)7 CH3, reference compound] |  |  |  |  |  | MD LD50 (comparative examples) (Musca domestica; Table 7): 1.9 μg/insect; PC LD50 (comparative examples) (Phaedon cochleariae Fab): 0.78 μg/insect
C[Si](C)(C)CCCCCCCCCCC1=C(O)C(=O)c2ccccc2C1=O [Example 13] | 9.9 | 2.2 (≈ 5.69 µM) | 90 | 90 |  | mortality at 100 ppm (Aphis gossypiae): 83%
C[Si](C)(C)CCCCCCCCC1=C(O)C(=O)c2ccccc2C1=O [Example 11] | 2.3 | 0.51 (≈ 1.42 µM) | 100 | 100 | 14.6 (≈ 40.7 µM) | mortality at 100 ppm (Myzus persicae [1]; [6]): 95%; mortality at 100 ppm (Aphis gossypiae): 100%
C[Si]1(CCCCCCCCC2=C(O)C(=O)c3ccccc3C2=O)CCCC1 [Example 18, 2-Hydroxy-3-(8-(1-methyl-(tetramethylenesilyl))octyl)-1,4-naphthoquinone] |  | 3.6 (≈ 9.36 µM) | 59 |  |  | 
C[Si]1(CCCCCCCCC2=C(O)C(=O)c3ccccc3C2=O)CCCCC1 [Example 19, 2-hydroxy-3-(8-(1-methyl-(pentamethylenesilyl))octyl)-1,4-naphthoquinone] |  |  |  |  |  | mortality at 100 ppm (Bemisia tabaci): 13%
C[Si](C)(C)CC=CC1=C(O)C(=O)c2ccccc2C1=O [Example 20, 2-hydroxy-3-(3-trimethylsilyl-1-propenyl)-1,4-naphthoquinone] |  | 21 (≈ 73.3 µM) |  |  | 30 (≈ 105 µM) | PC (LD50) (Phaedon cochleariae Fab): > 20 μg/insect
C[Si](C)(C)CCCCC1=C(O)C(=O)c2ccccc2C1=O [Example 8] | 1.8 | 9.2 (≈ 30.4 µM) | 90 | 90 |  | mortality at 1000 ppm (Myzus persicae [1]; resistant strain 794JZ, 1000 ppm, read-out: Topical aphid results, % kill M.P. 794JZ): 100%; mortality at 100 ppm (Myzus persicae [2]; [7]): 100%
C[Si](C)(C)CCCCCC1=C(O)C(=O)c2ccccc2C1=O [Example 3, 2-hydroxy-3(5'-trimethylsilylpentyl)-1,4-naphthoquinone] | 1.3 | 2.8 (≈ 8.85 µM) | 100 | 100 | 6.8 (≈ 21.5 µM) | mortality at 100 ppm (Aphis gossypiae): 100%
CC[Si](CC)(CC)CCCCCCCCC1=C(O)C(=O)c2ccccc2C1=O [Example 15] |  | 5.2 (≈ 13 µM) | 58 |  | 22 (≈ 54.9 µM) | 
C[Si](C)(C)CCC1=C(OC(=O)c2ccccc2)C(=O)c2ccccc2C1=O [Example 1, 2-benzoyloxy-3-(2'-trimethylsilylethyl)-1,4-naphthoquinone] | > 20 | 110 (≈ 291 µM) |  |  |  | PC (LD50) (Phaedon cochleariae Fab): > 20 μg/insect
CCOCOC1=C(CCCCCCCCC[Si](C)(C)C)C(=O)c2ccccc2C1=O [Example 24, 2-ethoxymethoxy-3-(9-trimethylsilylnonyl)-1,4-naphthoquinone] |  |  | 16 |  |  | mortality at 100 ppm (Bemisia tabaci): 19%
C[Si](C)(C)CC1=C(O)C(=O)c2ccccc2C1=O [Example 6] |  |  |  |  | 1.7 (≈ 6.53 µM) | 
C[Si](C)(C)CCCCCCCC1=C(O)C(=O)c2ccccc2C1=O [Example 10] | 1.7 | 0.31 (≈ 0.9 µM) | 100 | 100 | 8.2 (≈ 23.8 µM) | mortality at 100 ppm (Aphis gossypiae): 100%
CC[Si](C)(C)CCCCCCCCC1=C(O)C(=O)c2ccccc2C1=O [Example 14, 2-hydroxy-3(8-(dimethylethylsilyl)octyl)-1,4-naphthoquinone] |  |  | 74 |  | 15 (≈ 40.3 µM) | 
CCC[Si](CCC)(CCC)CCCCCCCCC1=C(O)C(=O)c2ccccc2C1=O [Example 16] |  |  | 24 |  |  | PC (LD50) (Phaedon cochleariae Fab): > 20 μg/insect; mortality at 100 ppm (Bemisia tabaci): 79%
C[Si](C)(C)CCCC1=C(O)C(=O)c2ccccc2C1=O [Example 7] | 4.4 | 6.4 (≈ 22.2 µM) | 45 | 90 |  | mortality at 100 ppm (Aphis gossypiae): 57%
CCCCCCC1=C(O)C(=O)c2ccccc2C1=O [--(CH2)5 CH3, reference compound] |  |  |  |  |  | LC50 (Tetranychus urticae; [8]): 170 µg/mL (≈ 658 µM); LC50 (Bemisia tabaci; [3]): 9.4 µg/mL (≈ 36.4 µM)
COC1(OC)C(O)=C(CC[Si](C)(C)C)C(=O)c2ccccc21 [Example 5, 2-hydroxy-3-(2'-trimethylsilylethyl)-1,4-naphthoquinone, 1-dimethyl acetal] | > 20 | 41 (≈ 128 µM) |  |  |  | PC (LD50) (Phaedon cochleariae Fab): ~20 μg/insect
CCCCCCCCCCCCC1=C(O)C(=O)c2ccccc2C1=O [--(CH2)11 CH3, reference compound] |  |  |  |  |  | LC50 (Tetranychus urticae; [8]): < 60 µg/mL; LC50 (Bemisia tabaci; [3]): > 100 µg/mL
CC(=O)OC1=C(CC[Si](C)(C)C)C(=O)c2ccccc2C1=O [Example 4, 2-ethanoyloxy-3-(2'-trimethylsilylethyl)-1,4-naphthoquinone] |  | 45 (≈ 142 µM) |  | 19 | 2.9 (≈ 9.16 µM) | mortality at 100 ppm (Myzus persicae [2]; [7]): 19%
CC(=O)OC1=C(CCCCCCCCC[Si](C)(C)C)C(=O)c2ccccc2C1=O [Example 21, 2-ethanoyloxy-3-(9-trimethylsilylnonyl)-1,4-naphthoquinone] |  | 2 (≈ 4.82 µM) |  | 66 | < 100 | mortality at 100 ppm (Myzus persicae [1]; [6]): 89%; mortality at 125 ppm (Myzus persicae [1]; susceptible strain USIL, 125 ppm, read-out: Topical aphid results, % kill M.P. USIL): 66%
CCC[Si](C)(C)CCCCCCCCC1=C(O)C(=O)c2ccccc2C1=O [Example 17] |  | 8.4 (≈ 21.7 µM) | 88 |  | 13 (≈ 33.6 µM) | 
